Kinase data for 82 molecules are collected here from patent publication US20050288347A1, “Certain triazole-based compounds, compositions, and uses thereof” (priority 2004, published 2005).

The target in the test is protein kinase. The test can be described thus: HTS ATP-utilizing enzyme assay, off-chip mobility-shift format (Caliper HTS 250). The test is classed as biochemical, human. The conditions noted are these: kinase(s) for which the compound exhibits protein kinase inhibitory activity; test compound 10 μM; active = greater than three-sigma from the mean activity of inactive compounds. A digest of the protocol:
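Kinase reactions ran 2.5 h at 20 to 22 °C with test compound at 10 μM, in a HEPES pH 7.5 master buffer containing Triton X-100 and BSA. Peptide substrate and phosphorylated product separated by mobility shift; inhibition normalized to DMSO (0%) and EDTA (100%) controls, with three-sigma thresholds for hits.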

“Also recorded” adds a separate entry of the source.

Regarding `Cc1ccc(-n2c(SCC(=O)N3CCCCC3)nnc2-c2ccncc2)cc1`, the Kinase result was “FYN”.

Regarding `O=C(CSc1nnc(-c2ccc([N+](=O)[O-])cc2)n1CC1CCCO1)N1CCOCC1` (stereo not shown), the Kinase entry is on record as “PDGFRR-α”.

Regarding `NC(=O)c1c(NC(=O)CSc2nnc(-c3ccccc3)n2Cc2ccco2)sc2c1CCC2`, the Kinase result is “GSK3-α and GSK3-β and PAK2”.

As for `Cn1c(COc2ccc([N+](=O)[O-])cc2)nnc1SCC(=O)Nc1sc2c(c1C(N)=O)CCCC2`, the Kinase entry is “GSK3-β; also recorded: GSK3-α; also recorded: AURORA-A”.

Turning to `NC(=O)c1c(NC(=O)CSc2nnc(-c3ccncc3)n2CC2CCCO2)sc2c1CCCC2` (stereo not shown), the Kinase entry is on record as “GSK3-β; also recorded: GSK3-α; also recorded: AURORA-A”.

For the molecule `Cc1ccc(C)c(-n2c(SCC(N)=O)nnc2-c2ccc(O)cc2)c1`, the Kinase entry is on record as “GSK3-β; also recorded: GSK3-α; also recorded: CDK2-cyclinE”.

For `CN(C)CCCn1c(SCC(=O)NCc2ccco2)nnc1-c1ccncc1`, the Kinase result was “PDGFRR-α and PAK2”.

For the molecule `Cc1cc(C)nc(SCc2nnc(SCC#N)n2-c2cccc(Cl)c2)n1`, the Kinase entry is given as “LYNA”.

With `COCCCn1c(C)nnc1SCC(=O)Nc1ccccc1[N+](=O)[O-]`, the Kinase result is recorded as “FYN”.

In the case of `COc1ccc(-n2c(SCC(N)=O)nnc2-c2ccc(S(=O)(=O)N3CCCC3)cc2)cc1`, the Kinase result is “MAPKAPK-2”.

With `COc1ccc(-n2c(SCC#N)nnc2-c2cccnc2)cc1`, the Kinase result is “AURORA-A”.

Turning to `COc1cc([N+](=O)[O-])ccc1NC(=O)CSc1nnc(-c2ccncc2)n1Cc1ccco1`, the Kinase entry was “FYN and PDGFRR-α and FLT-3”.

Turning to `O=C(CSc1nnc(-c2ccncc2)n1Cc1ccco1)Nc1cccc(O)c1`, the Kinase entry was “GSK3-β and GSK3-α and AKT3”.

For `C=CCn1c(SCC(=O)Nc2cccc([N+](=O)[O-])c2)nnc1-c1ccncc1`, the Kinase result is “FYN”.

On to `NC(=O)CSc1nnc(CNc2ccc(F)cc2)n1Cc1ccccc1`, for which the Kinase result was “GSK3-β and AKT1 and GSK3-α”.

In the case of `CCn1c(SCC(=O)N2CCCC(C)C2)nnc1-c1ccc(S(=O)(=O)N2CCN(C)CC2)cc1` (stereo not shown), the Kinase entry is listed as “FYN”.

With `CCn1c(SCC(=O)Nc2nc(C)cs2)nnc1-c1ccc(S(=O)(=O)N2CCN(C)CC2)cc1`, the Kinase result was “FYN”.

Regarding `CCn1c(SCC(=O)Nc2nccs2)nnc1-c1ccc(S(=O)(=O)N2CCCC2)cc1`, the Kinase result was “GSK3-β; also recorded: GSK3-α”.

In the case of `CCn1c(COc2cccc3ccccc23)nnc1SCC(=O)NCC1CCCO1` (stereo not shown), the Kinase entry is recorded as “FYN”.

Take `CCn1c(COc2cccc(C)c2)nnc1SCC(=O)N1CCCCC1`: the Kinase entry is given as “FYN”.

On to `CCn1c(SCC(=O)NCc2ccco2)nnc1-c1ccccc1`, for which the Kinase entry is given as “FYN”.

Take `Cn1c(SCC(=O)N2CCCC2)nnc1-c1ccc(S(=O)(=O)N2CCOCC2)cc1`: the Kinase result is listed as “AURORA-A”.

Regarding `Cn1c(SCC(=O)Nc2nccs2)nnc1-c1ccc(S(=O)(=O)N2CCOCC2)cc1`, the Kinase entry is “GSK3-α; also recorded: GSK3-β”.

Regarding `Cc1ccc([N+](=O)[O-])cc1NC(=O)CSc1nnc(-c2ccc([N+](=O)[O-])cc2)n1C`, the Kinase entry is given as “PDGFRR-α”.

Consider `Cn1c(CNc2nc(-c3ccccc3)cs2)nnc1SCC(N)=O`, for which the Kinase result is “FYN”.

Turning to `Cn1c(COc2ccc3ccccc3c2)nnc1SCC(N)=O`, the Kinase entry is “FYN”.

For `NC(=O)CSc1nnc(-c2ccc(NS(=O)(=O)c3ccccc3)cc2)n1-c1ccccc1`, the Kinase entry was “AURORA-A”.

Regarding `NC(=O)CSc1nnc(COc2cccc3cccnc23)n1-c1ccccc1`, the Kinase entry is “MAPKAPK-2”.

As to `CC(C)N(C(=O)CSc1nnc(-c2ccccc2N)n1C)C(C)C`, the Kinase entry is “FYN and PRAK”.

As for `CNC(=O)CSc1nnc(-c2cc3ccccc3cc2O)n1C`, the Kinase result is recorded as “FYN”.

For the molecule `CCCOc1ccc(CNC(=O)CSc2nnc(-c3ccc(OC)c(OC)c3)n2C)cc1`, the Kinase result is listed as “AURORA-A; also recorded: DYRK2”.

For the molecule `COc1ccc(-c2nnc(SCC(=O)N3CCOCC3)n2-c2ccccc2)cc1OC`, the Kinase entry is given as “AKT1”.

`O=C(CSc1nnc(-c2ccc(O)cc2)n1CC1CCCO1)Nc1nc2c(s1)CCCC2` (stereo not shown): the Kinase result is reported as “GSK3-β; also recorded: AURORA-A”.

Take `COc1ccc(-c2nnc(SCC(=O)N(C)C)n2-c2ccccc2)cc1`: the Kinase entry was “PDK1 and SYK and INSR”.

In the case of `COc1ccc(-c2nnc(SCC(=O)Nc3ccccc3)n2-c2ccccc2)cc1`, the Kinase entry is “PRAK and CHEK2”.

As to `COc1ccc(-c2nnc(SCC(=O)N3CCOCC3)n2-c2ccccc2)cc1`, the Kinase entry was “INSR and PRAK”.

As to `CNC(=O)CSc1nnc(-c2ccc(OC)cc2)n1-c1ccccc1`, the Kinase entry is “SYK and PRAK”.

As to `Cn1c(Cn2nnc3ccccc32)nnc1SCC(=O)Nc1nccs1`, the Kinase entry is given as “GSK3-β; also recorded: GSK3-α; also recorded: CDK2-cyclinE”.

Turning to `Cn1c(Cn2cnc3ccccc32)nnc1SCC(=O)Nc1ccccc1Cl`, the Kinase entry is on record as “FYN”.

Regarding `Cc1ccc(NCc2nnc(SCC(=O)NCc3ccco3)n2CC2CCCO2)c(C)c1` (stereo not shown), the Kinase entry was “PDGFRR-α and FYN”.

For `Cc1ccc(NCc2nnc(SCC(N)=O)n2Cc2ccco2)c(C)c1`, the Kinase result was “PDGFRR-α”.

As for `Cc1ccc(NCc2nnc(SCC#N)n2-c2ccccc2)c(C)c1`, the Kinase result is on record as “AKT1”.

Turning to `CCn1c(CNc2cccc(Cl)c2)nnc1SCC#N`, the Kinase entry is “CDK2-cyclinA”.

Regarding `CCn1c(COc2ccc(Cl)c(C)c2)nnc1SCC(=O)N1CCCCC1`, the Kinase result was “FYN”.

`CCOc1ccc(NCc2nnc(SCC(N)=O)n2-c2ccccc2)cc1`: the Kinase entry was “FYN and PDGFRR-α and FLT-3”.

`COc1ccc(OCc2nnc(SC(C)C(=O)Nc3ccccc3C)n2C)cc1` (stereo not shown): the Kinase entry is reported as “PDGFRR-α”.

On to `N#CCSc1nnc(COc2cccc3ccccc23)n1-c1ccccc1`, for which the Kinase result was “MAPKAPK-2 and CDK1 and CDK5”.

For `CCn1c(Cc2ccccc2)nnc1SCC(=O)N1CCCc2ccccc21`, the Kinase entry is “FYN”.

In the case of `Cc1nc(NC(=O)CSc2nnc(C3CC3)n2C)sc1C`, the Kinase result is recorded as “GSK3-β; also recorded: GSK3-α”.

Regarding `Cn1c(SCC(=O)Nc2nc3c(s2)CCCC3)nnc1C1CC1`, the Kinase entry is “CDK2-cyclinE”.

Take `O=C(O)c1ccc(-n2c(S)nnc2-c2cc(C3CC3)n[nH]2)cc1`: the Kinase result is given as “GSK3-α”.

For the molecule `COc1ccc(-n2c(S)nnc2CNc2cccc(C(F)(F)F)c2)cc1`, the Kinase result is listed as “GSK3-α; also recorded: GSK3-β”.

Turning to `CCN(CC)S(=O)(=O)c1ccc(-c2nnc(SCC(=O)N3C(C)CCCC3C)n2CC)cc1` (stereo not shown), the Kinase entry is “PDGFRR-α and FYN”.

Turning to `COc1ccccc1OCc1nnc(S)n1Cc1ccco1`, the Kinase result is “AURORA-A; also recorded: GSK3-β; also recorded: GSK3-α”.

Consider `FC(F)(F)c1cccc(NCc2nnc(S)n2-c2ccccc2)c1`, for which the Kinase entry is “GSK3-α”.

In the case of `Cc1ccc(NCc2nnc(S)n2-c2ccccc2)cc1Cl`, the Kinase entry is recorded as “GSK3-β; also recorded: GSK3-α; also recorded: AURORA-A”.

Turning to `COc1ccc(-c2nnc(SCC(=O)Nc3ccccc3Cl)n2-c2ccccc2)cc1`, the Kinase entry is “INSR and SYK”.

Turning to `Cn1c(SCC(=O)Nc2cccc(NC(=O)c3ccco3)c2)nnc1-c1ccncc1`, the Kinase result is “GSK3-β; also recorded: AURORA-A; also recorded: GSK3-α”.

On to `COc1ccc(-c2nnc(SCC(=O)Nc3cccc(NC(=O)c4ccco4)c3)n2-c2ccccc2)cc1`, for which the Kinase result was “PRAK and CHEK2 and PKA”.

For `COc1ccc(-c2nnc(SCC(=O)Nc3cccc(NC(=O)C4CCCO4)c3)n2-c2ccccc2)cc1` (stereo not shown), the Kinase result was “PRAK and CHEK2 and PKA”.

`Cc1nnc(SCC(=O)Nc2cccc(N)c2)n1-c1ccccc1`: the Kinase entry is recorded as “FYN”.

Turning to `COc1ccc(-c2nnc(SCC(=O)Nc3cccc(Cl)c3)n2-c2ccccc2)cc1`, the Kinase result was “PRAK and CHEK2 and AURORA-A”.

In the case of `COc1ccc(NCc2nnc(SCC(=O)Nc3sc4c(c3C#N)CCCC4)n2C)cc1`, the Kinase result is reported as “DYRK2; also recorded: CDK2-cyclinE”.

As to `Cn1c(SCC(=O)NCc2ccco2)nnc1-c1ccc(NC(=O)c2ccccc2)cc1`, the Kinase entry is on record as “CHEK2”.

As for `COCCn1c(SCC(=O)Nc2ccc(F)cc2)nnc1-c1ccncc1`, the Kinase result is recorded as “FYN”.

As for `Cc1nc(NC(=O)CSc2nnc(-c3cccnc3)n2Cc2ccco2)sc1C`, the Kinase entry is “GSK3-β; also recorded: AURORA-A”.

With `CCc1nnc(NC(=O)CSc2nnc(-c3cccc(C)c3)n2CC)s1`, the Kinase entry is on record as “LCK”.

Consider `CCc1nnc(NC(=O)CSc2nnc(-c3ccc(NS(=O)(=O)c4ccc(C)cc4)cc3)n2C)s1`, for which the Kinase result is recorded as “PDGFRR-α”.

With `CCc1nnc(NC(=O)CSc2nnc(-c3ccc(O)cc3)n2C)s1`, the Kinase entry is recorded as “GSK3-β; also recorded: GSK3-α”.

In the case of `Cn1c(CNc2cccc(C(F)(F)F)c2)nnc1SCC(=O)Nc1ccc2c(c1)OCO2`, the Kinase result is on record as “AURORA-A”.

As to `COc1ccc(-c2nnc(SCC(=O)NCC3CCCCC3)n2-c2ccccc2)cc1`, the Kinase entry was “AKT3”.

In the case of `COc1ccc(NCc2nnc(SCC(=O)NCc3ccco3)n2-c2ccccc2OC)cc1`, the Kinase entry is “PDGFRR-α and FYN”.

In the case of `COCCCn1c(C)nnc1SCC(=O)NCc1ccco1`, the Kinase entry is reported as “FYN”.

`O=C(CSc1nnc(-c2ccncc2)n1Cc1ccco1)NCc1ccco1`: the Kinase result is “FYN”.

For the molecule `Cn1c(CNc2nc(-c3ccccc3)cs2)nnc1SCC(=O)NCc1ccccc1`, the Kinase entry was “PDGFRR-α and PKA”.

Regarding `COc1cccc(-n2c(SCC(=O)NC(C)(C)C)nnc2-c2cccnc2)c1`, the Kinase result was “AURORA-A”.

As for `CCOC(=O)c1sc(NC(=O)CSc2nnc(-c3ccc(OC)cc3)n2CCOC)nc1C`, the Kinase result was “GSK3-β; also recorded: GSK3-α”.

Regarding `CCOC(=O)CN(C(=O)CSc1nnc(-c2ccncc2)n1Cc1ccco1)c1cccc([N+](=O)[O-])c1`, the Kinase result is “FYN and GSK3-α”.

As to `CCOC(=O)c1sc(NC(=O)CSc2nnc(Cn3nnc4ccccc43)n2C)nc1C`, the Kinase entry was “GSK3-β”.

Regarding `CCOC(=O)c1ccc(NC(=O)CSc2nnc(COc3ccc(OC)cc3)n2CC)cc1`, the Kinase entry is “FYN”.

Consider `CCOC(=O)c1c(NC(=O)CSc2nnc(CNc3ccc(OC)cc3)n2C)sc(C(C)=O)c1C`, for which the Kinase result was “AURORA-A and FYN and PDGFRR-α”.

As for `COCCn1c(SCC(=O)Nc2ccccc2C(=O)OC)nnc1-c1ccncc1`, the Kinase result is given as “GSK3-β; also recorded: GSK3-α”.
